Consider two substances from patent publication US7173014B2, “HIV-specific synthetic oligonucleotides and methods of their use” (priority 1997, dated 2007).

The subject of one data set is HIV-2 (ROD). Briefly: XTT-based anti-HIV assay, HIV-2. Type of data set: cell-based. The text has this: (§1) The initial experiment performed involved evaluation of Oligos 12, 32, and 41 against three laboratory strains of HIV-1 (IIIB, RF and SK1) and one strain of HIV-2 (ROD) in parallel with the positive control compound ddC in the XTT-based anti-HIV assay. All these oligonucleotides are active against both HIV-1 and HIV-2.
(§2) CEM-SS sells (AIDS Research and Reference Reagent Program, NIH) or other established human T cell lines used in these experiments were passaged in T-150 flasks for use in the assay. On the day preceding the assay, the cells were split 1:2 to assure they would be in an exponential growth phase at time of infection. On the day of assay the cells were washed twice with tissue culture medium and resuspended in fresh tissue cultures medium. Total cell and viability counting was performed using a hemacytometer and trypan blue dye exclusion. Cell viability was greater than 95% for the cells to be utilized in the assay. The cells were pelleted and resuspended at 2.5×10^4 cells per ml in tissue culture medium. Cells were added to the drug-containing plates in a volume of 50 μl.
A pretitered aliquot of virus was removed from the freezer −80° C.) and allowed to thaw slowly to room temperature in a biological safety cabinet. The virus was resuspended and diluted into tissue culture medium such that the amount of virus added to each well in a volume of 50 μl will be the amount determined to give complete cell killing at 6 days post-infection. In general the virus pools produced with the IIIB isolate of HIV required the addition of 5 μl of virus per well.
Each plate contained cell control wells (cells only), virus control wells (cells plus virus), drug toxicity control wells (cells plus drug only), drug colorimetric control wells (drug only) as well as experimental wells (drug plus cells plus virus).
After 6 days of incubation at 37° C. in a 5% CO2 incubator, the test plates were analyzed by staining with the tetrazolium dye XTT. XTT-tetrazolium is metabolized by the mitochondrial enzymes of metabolically active cells to a soluble formazan product, allowing the rapid quantitative analysis of the inhibition of HIV-induced cell killing by anti-HIV test substances. On day 6 post-infection plates were removed from the incubator and observed. The use of round bottom microtiter plates allows rapid macroscopic analysis of the activity of a given test compound by the evaluation of pellet size. The results of the macroscopic observations were confirmed and enhanced by further microscopic analysis.
XTT solution was prepared daily as a stock of 1 mg/ml in PBS. Phenazine methosulfate (PMS) solution was prepared at 15 mg/ml in PBS and stored in the dark at −20° C. XTT/PMS stock was prepared immediately before use by diluting the PMS 1:100 into PBS and adding 40 μl per ml of XTT solution. Fifty microliters of XTT/PMS was added to each well of the plate and the plate was incubated for an additional 4 hours at 37° C. Adhesive plate sealers were used in place of the lids, the sealed plate was inverted several times to mix the soluble formazan product and the plate was read spectrophotometrically at A450 nm with a Molecular Devices Vmax plate reader.
(Tetrazolium dyes change colour on reduction, which living cells bring about.)

A further data set concerns HIV-1 IIB. Kind of data set: CPE-based inhibition of acute infection of MT-4 cells (MTT). The format is cell-based. Here is the method: CPE based infection experiments were performed using MT-4 cells (Pauwels et al. (1988) J. Virol. Meth. 20:309; Papp et al. (1997) AIDS Research and Human Retroviruses In Press). MT-4 cells were obtained from the AIDS Research and Reference Reagent Bank, Division of AIDS, NIAID, NIH contributed Dr. Richman (Pauwels et al. (1988) J. Virol. Meth. 20:309) T-lymphoid H9 (HUT-78) cells were obtained from Dr. Robert Gallo, National Cancer Institute, Bethesda, Md. (Popovic et al. (1984) Science 224:497; Gazdar et al. (1980) Blood 55:409). Cell cultures were maintained in RPMI 1640 medium (GIBCO Laboratories, Grand Island, N.Y.) supplemented with 20% (H9 cells), or 10% (MT-4 cells) heat-inactivated fetal bovine serum (Sigma Chemical Co., St. Louis, Mo.) 250 units/ml penicillin, 250 μg/ml streptomycin, 2 mM 1-glutamine, and 10 mM HEPES (N-2-hydroxyethylpiperazine-N′-2-ethanesulfonic acid) buffer (complete medium) at 37° C. in 5% CO2. HIV-1 IIB was originally obtained from Dr. Robert Gallo, National Cancer Institute (Popovic (1984) Science 224:497). Virus stocks of HIV-1 were prepared from cell-free filtered supernatant of chronically infected H9 cultures by the shaking method as previously described by Vujoie et al. (J. Infectious Diseases (1988) 157:1047).
Experiments were performed under two sets of conditions. […] The cultures were incubated for 6 days and CPE measured using the MTT dye method. […]

A short description of data set [1]: In vivo bioavailability after a single dose, monkeys. The settings on record: intravenous and oral.
Another data set has as its system HIV-1 (IIIB, RF and SK1). Kind of data set: XTT-based anti-HIV assay, laboratory strains of HIV-1. The format is cell-based.
Text: as §1
as §2, with “Cells were added to the drug-containing plates in a volume of 50 μl.” left out
A pretitered aliquot of virus was removed from the freezer −80° C.) and allowed to thaw slowly to room temperature in a biological safety cabinet. The virus was resuspended and diluted into tissue culture medium such that the amount of virus added to each well in a volume of 50 μl will be the amount determined to give complete cell killing at 6 days post-infection. […]
After 6 days of incubation at 37° C. in a 5% CO2 incubator, the test plates were analyzed by staining with the tetrazolium dye XTT. XTT-tetrazolium is metabolized by the mitochondrial enzymes of metabolically active cells to a soluble formazan product, allowing the rapid quantitative analysis of the inhibition of HIV-induced cell killing by anti-HIV test substances. […]
XTT solution was prepared daily as a stock of 1 mg/ml in PBS. […] Adhesive plate sealers were used in place of the lids, the sealed plate was inverted several times to mix the soluble formazan product and the plate was read spectrophotometrically at A450 nm with a Molecular Devices Vmax plate reader.

Data set [2] deals with monocyte-macrophage-tropic strains BaL and ADA. Briefly: Anti-HIV assay in fresh human monocyte-macrophages. The format is cell-based, HIV-1. The protocol:
In addition to these T-tropic strains, the activity of the compounds was also evaluated against the monocyte-macrophage strains BaL and ADA. Oligos 12 and 32 according to the invention, as well as Oligo 41 are active against low passage clinical T-tropic strains of HIV-1. The activity of the compounds varies from strain to strain. The compounds were not active against the monocyte-macrophage-tropic strains BaL and ADA.
For isolation of adherent cells, 3×10^6 non-PHA stimulated peripheral blood cells were resuspended in Hanks buffered saline (with calcium and magnesium) supplemented with 10% human AB serum. The cells were placed in a 24-well microtiter plate at 37° C. for 2 hours. Non-adherent cells were removed by vigorously washing six times. The adherent cells were cultured for 7 days in RPMI 1640 tissue culture medium with 15% fetal bovine serum. The cultures were carefully monitored for confluency during this incubation period. Infection of the cells was performed with the monocytotropic HIV-1 strains BaL or ADA and the matched pair of AZT-sensitive and AZT-resistant virus isolates. Each of these virus isolates was obtained from the NIAID AIDS Research and Reference Reagent Program. High titer pools of each of these viruses have been harvested from infected cultures of peripheral blood adherent cells and frozen in 1.0 ml aliquots at −80° C. Monocyte-macrophage monolayers were infected at an MOI of 0.1. Compounds to be evaluated in the monocyte-macrophage assay are added to the monolayers shortly before infection in order to maximize the potential for identifying active compounds.
At 2 days post-infection, the medium was decanted and the cultures washed twice with complete medium in order to remove excess virus. […] Control curves are generated in each assay to accurately quantify the amount of capsid protein in each sample. Data was obtained by spectrophotometric analysis at 450 nm using a plate reader (Molecular Devices Vmax). P24 concentrations were calculated from the optical density values by use of the Molecular Device software package Soft Max.

Data set [3] can be described thus: In vivo bioavailability after a single dose, rats. The conditions noted are these: intravenous and oral.
Data set [4] has as its system low passage, clinical strains of HIV-1. Kind of data set: Anti-HIV activity in fresh human peripheral blood mononuclear cells. The settings on record: fresh human PBMC; varies from strain to strain. Type of data set: cell-based. The protocol:
In another experiment, the anti-HIV activity of Oligos 12, 32, and 41 was evaluated against a variety of low passage, clinical strains of HIV-1 in fresh human peripheral blood mononuclear cells. These strains include viruses obtained from pediatric patients attending the Children's Hospital University of Alabama at Birmingham as well as viruses representative of the various HIV-1 clades found throughout the world, shown below in TABLE 4.
Fresh human peripheral blood lymphocytes (PBL) were isolated from voluntary Red Cross donors, seronegative for HIV and HBV. Leukophoresed blood was diluted 1:1 with Dulbecco's phosphate buffered saline (PBS), layered over 14 ml of Ficoll-Hypaque density gradient in a 50 ml centrifuge tube. Tubes were then centrifuged for 30 minutes at 600×g. Banded PBLs were gently aspirated from the resulting interface and subsequently washed 2× with PBS by low speed centrifugation. After final wash, cells were enumerated by trypan blue exclusion and re-suspended at 1×10^7/ml in RPMI 1640 with 15% Fetal Bovine Serum (FBS), 2 mM L-glutamine, […] PHA-P and allowed to incubate for 48–72 hours at 37° C. After incubation, PBLs were centrifuged and reset in RPMI 1640 with 15% FBS, 2 mM L-glutamine, 100 U/ml penicillin, 100 μg/ml streptomycin, 10 μg/ml gentamycin, and 20 U/ml recombinant human IL-2. PBLs were maintained in this medium at a concentration of 1–2×10^6/ml with bi-weekly medium changes, until use in assay protocol. […]
In the standard PBL assay (MOI: 0.2), the assay was ended on day 7 following collection of cell free supernatant samples for reverse transcriptase activity assay. In the low MOI PBL assay (MOI: 0.02), supernatant samples were collected on day 6, day 11, and day 14 post-infection and analyzed for RT activity. […] Opti-Fluor O was added to each sample and incorporated radioactivity was quantified utilizing a liquid scintillation counter, (Wallac 1450 Microbetaplus, Gaithersburg, Md.).

d = 2'-deoxy (DNA); m = 2'-O-methyl

Consider “4×4: 21mer phosphorothioate linked oligonucleotide, deoxyribonucleotides flanked on each side by four 2′-O-methyl ribonucleotides; SEQ ID NO:1 (UCGCACCCATCTCTCTCCUUC; sugars from the 5' end m4 d13 m4, all phosphorothioate, methylation of C not given here)”, for which the “inhibition of HIV-2-induced cell killing” value in the data set on HIV-2 (ROD) (XTT assay (FIG. 3)) was “inhibit HIV-2-induced cell killing”. Further, the “inhibition of HIV-1 infection” value in the data set on HIV-1 IIB (MT-4 cells treated during initial infection (FIG. 1)) was “inhibition of HIV-1 infection”; in the data set with HIV-1 IIB (MT-4 cells treated following initial infection, post-viral adsorption (FIG. 2)) it was “inhibition of HIV-1 infection”.
On to “UCGCACCCATCTCTCTCCUUC (chemistry not given here) [Oligo 12]”, for which the bioavailability result in data set [1] is “intravenously and orally bioavailable”; in data set [3], “intravenously and orally bioavailable”. For the same substance, the “activity against HIV-1” value in the data set with HIV-1 (IIIB, RF and SK1) is “active”. Further, in data set [2], the “activity against monocyte-macrophage-tropic strains BaL and ADA” value is “not active”. The “level of activity against the HIV-2 strain ROD” value in the data set with HIV-2 (ROD) (compared with the HIV-1 strains, XTT assay) was “enhanced level of activity”. Moreover, in the data set on HIV-2 (ROD) (strain ROD, XTT assay), the “activity against HIV-2” value was “active”. Besides, in data set [4], the “activity against low passage clinical T-tropic strains of HIV-1” value is given as “active”.
